The source of these data is patent US20240327506A1, “METHODS AND COMPOSITION FOR THE SELECTIVE ENHANCEMENT OF ADOPTIVE CELL THERAPY” (MaineHealth, priority 2023, published 2024).

Assay [1] deals with primary CD8+ T-cells from melanoma bearing C57BL/6 mice. Description: Transwell migration of primary CD8+ T-cells through collagen type-IV. The assay is classed as cell-based, murine. Particulars: peptide. The protocol:
FIGS. 4A-4H. […] Briefly, membranes from transwell migration chambers were coated with either native collagen type-IV or denatured collagen type-IV. T-cell variants were incubated with non-specific control peptide CP, or the RGDKGE (SEQ ID NO: 1)-containing collagen peptide (P2) and seed on the coated transwell membranes. T-cells were allowed to migrate in the presence or absence of SDF-1 added to the lower chamber for approximately 1.5 hours. Cell migration was quantified by counting the number of crystal violet stained cells that had migrated through to the underside of the coated membrane. FIG. 4A. Jurkat T-cell migration through denatured collagen type-IV in the presence of non-specific control peptide CP or RGDKGE (SEQ ID NO: 1)-containing collagen peptide P2 with SDF-1. FIG. 4B. Jurkat T-cell migration through native collagen type-IV in the presence of non-specific control peptide CP or RGDKGE (SEQ ID NO: 1)-containing collagen peptide P2 with SDF-1. FIG. 4C. Cem/C1 T-cell migration through denatured collagen type-IV in the presence of non-specific control peptide CP or RGDKGE (SEQ ID NO: 1)-containing collagen peptide P2 with SDF-1. FIG. 4D. […]
FIGS. 5A-5F. […] Cell migration was quantified by counting the number of crystal violet stained cells that had migrated through to the underside of the coated membrane. […]

Assay [2] relates to angiogenesis and inflammation. The note with it: peptide; cited from earlier work.

As to “QGPRGDKGE (CQGPRGDKGEC; Synthetic: Synthetic collagen RGD containing peptide P-2) [Peptide P2, synthetic version of the soluble RGDKGE-containing collagen peptide]”, the “primary murine CD8+ T-cell migration” value in assay [1] (denatured collagen type-IV, SDF-1, compared to CP) is recorded as “selectively inhibited”; in assay [1] (native collagen type-IV, SDF-1), “neither the RGDKGE (SEQ ID NO: 1) collagen peptide P2, nor the non-specific control peptide CP had any significant impact”. Besides, the “induction of angiogenesis and inflammation in vivo” value in assay [2] was “significantly induced angiogenesis and inflammation”.
